The target in one assay is T1, Human CARM1 (PRMT4) (Homo sapiens, UniProt Q86X55).
T1 construct: Flag-CARM1-His was eluted with 200 ug/ml FLAG peptide in buffer A; made in house; host or cells: HEK 293F cells infected with recombinant baculovirus (pFastBacMam)
T1 sequence (Q86X55 1-585 isoform Q86X55-1): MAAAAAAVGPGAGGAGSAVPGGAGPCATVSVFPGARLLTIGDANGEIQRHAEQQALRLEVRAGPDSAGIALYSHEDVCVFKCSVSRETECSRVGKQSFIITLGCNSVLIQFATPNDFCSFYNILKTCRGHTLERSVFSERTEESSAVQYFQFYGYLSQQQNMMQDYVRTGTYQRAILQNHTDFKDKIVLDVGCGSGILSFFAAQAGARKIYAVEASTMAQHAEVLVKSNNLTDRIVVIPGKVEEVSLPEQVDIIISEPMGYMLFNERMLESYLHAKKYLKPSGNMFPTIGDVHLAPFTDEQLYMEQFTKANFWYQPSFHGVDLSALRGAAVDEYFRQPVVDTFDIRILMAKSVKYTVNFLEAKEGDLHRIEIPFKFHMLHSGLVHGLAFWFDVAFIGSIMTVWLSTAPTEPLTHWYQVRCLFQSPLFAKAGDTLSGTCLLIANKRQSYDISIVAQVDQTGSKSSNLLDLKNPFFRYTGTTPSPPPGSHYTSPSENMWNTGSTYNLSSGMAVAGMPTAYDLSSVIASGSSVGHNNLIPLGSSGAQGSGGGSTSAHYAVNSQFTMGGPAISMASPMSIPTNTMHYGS
The experiment in a line: CARM1 enzyme assay on peptide substrates (3H-SAM Flashplate). As to conditions: Biochemical assay; CARM1 0.25 nM, 3H-SAM 30 nM, peptide 250 nM; read-out: Biochem IC50. The source says:
S-adenosylmethionine (SAM), S-adenosylhomocysteine (SAH), bicine, Tween20, dimethylsulfoxide (DMSO), bovine skin gelatin (BSG), sodium butyrate and Tris(2-carboxyethyl)phosphine hydrochloride solution (TCEP) were purchased from Sigma-Aldrich at the highest level of purity possible. ^3H-SAM was purchase from American Radiolabeled Chemicals with a specific activity of 80 Ci/mmol. 384-well streptavidin Flashplates were purchased from PerkinElmer.
Peptide representative of human histone H3 residues 16-30 was synthesized with an N-terminal linker-affinity tag motif and a C-terminal amide cap by 21st Century Biochemicals. […] The sequence was Biot-Ahx-[…]-amide and contained a monomethylated arginine at position 26 (SEQ ID NO.:1).
The gene sequence encoding isoform1 containing a deletion of amino acids 539-561 was amplified subsequently and subcloned into pFastBacMam (Viva Biotech).
Recombinant baculovirus were generated according to Bac-to-Bac kit instructions (Life Technologies). Protein over-expression was accomplished by infecting exponentially growing HEK 293F cell culture at 1.3×10^6 cell/ml with virus (MOI=10) in the presence of 8 mM sodium butyrate. Infections were carried out at 37° C. for 48 hours, harvested by centrifugation, and stored at −80° C. for purification.
Column was washed with 500 mM NaCl in buffer A and Flag-CARM1-His was eluted with 200 ug/ml FLAG peptide in buffer A. Pooled fractions were dialyzed in 20 mM Tris, 150 mM NaCl, 5% glycerol and 1 mM DTT, pH 7.8.
The assays were all performed in a buffer consisting of 20 mM Bicine (pH=7.6), 1 mM TCEP, 0.005% BSG, and 0.002% Tween 20, prepared on the day of use. Compounds in 100% DMSO (1 ul) were spotted into a polypropylene 384-well V-bottom plates (Greiner) using a Platemate Plus outfitted with a 384-channel head (Thermo Scientific). DMSO (1 ul) was added to Columns 11, 12, 23, 24, rows A-H for the maximum signal control and 1 ul of SAH, a known product and inhibitor of CARM1, was added to columns 11, 12, 23, 24, rows I-P for the minimum signal control. A cocktail (40 ul) containing the CARM1 enzyme was added by Multidrop Combi (Thermo-Fisher). The compounds were allowed to incubate with CARM1 for 30 min at room temperature, then a cocktail (10 ul) containing ^3H-SAM and peptide was added to initiate the reaction (final volume=51 ul). The final concentrations of the components were as follows: CARM1 was 0.25 nM, ^3H-SAM was 30 nM, peptide was 250 nM, SAH in the minimum signal control wells was 1 mM, and the DMSO concentration was 2%. The assays were stopped by the addition of non-radiolabeled SAM (10 ul) to a final concentration of 300 uM, which dilutes the ^3H-SAM to a level where its incorporation into the peptide substrate is no longer detectable. 50 ul of the reaction in the 384-well polypropylene plate was then transferred to a 384-well Flashplate and the biotinylated peptides were allowed to bind to the streptavidin surface for at least 1 hour before being washed once with 0.1% Tween20 in a Biotek ELx405 plate washer. The plates were then read in a PerkinElmer TopCount plate reader to measure the quantity of ^3H-labeled peptide bound to the Flashplate surface, measured as disintegrations per minute (dpm) or alternatively, referred to as counts per minute (cpm).
where dpm=disintegrations per minute, cmpd=signal in assay well, and min and max are the respective minimum and maximum signal controls.
where top and bottom are the normally allowed to float, but may be fixed at 100 or 0 respectively in a 3-parameter fit. The Hill Coefficient normally allowed to float but may also be fixed at 1 in a 3-parameter fit. Y is the % inhibition and X is the compound concentration.

For assay [1], the system named is asymmetric di-methyl PABP1 in RKO cells. The experiment in a line: RKO methylation assay: In Cell Western (ICW) for asymmetric di-methyl PABP1 (PABP1me2a). As to conditions: Homo sapiens, RKO, 48 h, Cellular-based (PABP1me2a) ICW (In Cell Western) assay. The source says: RKO adherent cells were purchased from ATCC (American Type Culture Collection), Manassas, Va., USA. DMEM/Glutamax medium, penicillin-streptomycin, heat inactivated fetal bovine serum, 0.05% trypsin and D-PBS were purchased from Life Technologies, Grand Island, N.Y., USA. Odyssey blocking buffer, 800CW goat anti-rabbit IgG (H+L) antibody, and Licor Odyssey infrared scanner were purchased from Licor Biosciences, Lincoln, Nebr., USA. Asymmetric di-methyl PABP1 antibody was purchased from Cell Signaling Technology, Danvers, Mass., USA. Methanol was purchased from VWR, Franklin, Mass., USA. 10% Tween 20 was purchased from KPL, Inc., Gaithersburg, Md., USA. Paraformaldehyde (PFA) was purchased from EM Sciences. DRAQ5 was purchased from Biostatus Limited, Leicestershire, UK.
RKO adherent cells were maintained in growth medium (DMEM/Glutamax medium supplemented with 10% v/v heat inactivated fetal bovine serum and 100 units/mL penicillin-streptomycin) and cultured at 37° C. under 5% CO2.
Cell treatment, In Cell Western (ICW) for detection of asymmetric di-methyl PABP1 and DNA content: RKO cells were seeded in assay medium at a concentration of 30,000 cells per mL to a poly-D-lysine coated 384 well culture plate (BD Biosciences 356697) with 50 μL per well. Compound (100 nL) from a 96-well source plate was added directly to 384 well cell plate. Plates were incubated at 37° C., 5% CO2 for 48 hours. After two days of incubation, plates were brought to room temperature outside of the incubator for ten minutes and blotted on paper towels to remove cell media. Cells were fixed for 20 minutes at room temperature by adding 50 ul of 8% PFA followed by aspiration of supernatant with the Biotek EL406 plate washer. Cells were then permeabilized by addition of 50 μL of ice cold 100% methanol directly to each well and incubated for 30 min at room temperature. After 30 min, plates were transferred to a Biotek EL406 plate washer and washed 2 times with 100 μL per well of wash buffer (1×PBS). Next 60 μL per well of Odyssey blocking buffer (Odyssey Buffer with 0.1% Tween 20 (v/v)) were added to each plate and incubated 1 hour at room temperature. Blocking buffer was removed and 20 μL per well of primary antibody was added (asymmetric-methyl PABP1) diluted 1:400 in Odyssey buffer with 0.1% Tween 20 (v/v)) and plates were incubated overnight (16 hours) at 4° C. Plates were washed 5 times with 100 μL per well of wash buffer. Next 20 μL per well of secondary antibody was added (1:800 800CW goat anti-rabbit IgG (H+L) antibody, 1:2000 DRAQ5 in Odyssey buffer with 0.1% Tween 20 (v/v)) and incubated for 1 hour at room temperature. The plates were washed 5 times with 100 μL per well wash buffer then 2 times with 100 μL per well of water. Plates were allowed to dry at room temperature then imaged on the Licor Odyssey machine which measures integrated intensity at 700 nm and 800 nm wavelengths. Both 700 and 800 channels were scanned.
First, the ratio for each well was determined by:
Each plate included fourteen control wells of DMSO only treatment (minimum inhibition) as well as fourteen control wells for maximum inhibition treated with 20 μM of a reference compound. The average of the ratio values for each control type was calculated and used to determine the percent […] for each test well in the plate. Reference compound was serially diluted three-fold in DMSO for a total of nine test concentrations, beginning at 20 μM.
Percent inhibition was determined and IC50 curves were generated using triplicate wells per concentration of compound.

By IC50 is commonly meant the concentration at which inhibition is half-maximal. On to `CNC[C@@H](O)COc1ccc(Cl)c(-c2nc(-c3c(C)noc3C)c(C)c(N3C[C@H]4CN(CC(F)F)C[C@@H]4C3)n2)c1` [Example 29], for which the values for the IC50 (on Human CARM1 (PRMT4); in assay [1]) were 10.2 nM and 263 nM, respectively.
Consider `CNC[C@@H](O)COc1ccc(Cl)c(-c2nc(-c3c(C)noc3C)c(C)c(N3C[C@H]4CN(CC(F)F)C[C@H]4C3)n2)c1` [Example 30], for which the IC50 was determined as 7 nM on Human CARM1 (PRMT4) and 166 nM in assay [1].
In the case of `CNC[C@@H](O)COc1ccc(Cl)c(-c2nc(-c3c(C)noc3C)c(C)c(N3C[C@H]4CN(C(=O)C(F)(F)F)C[C@H]4C3)n2)c1` [Example 31], the IC50 amounted to 1.4 nM on Human CARM1 (PRMT4) and 2150 nM in assay [1].
On the same counts, the results for `CNC[C@@H](O)COc1ccc(Cl)c(-c2nc(-c3c(C)noc3C)c(C)c(N3CC4(CCN(CC(F)F)C4)C3)n2)c1` [Example 32] are 7 nM and 53 nM.
On the same counts, the results for `CNC[C@@H](O)COc1ccc(Cl)c(-c2nc(-c3c(C)noc3C)c(C)c(N3CC4(CCN(C(=O)N(C)C)CC4)C3)n2)c1` [Example 33] are 7.2 nM and 83 nM.
With `CNC[C@@H](O)COc1ccc(Cl)c(-c2nc(-c3c(C)noc3C)c(C)c(N3Cc4c(n(C)c(=O)n(C)c4=O)C3C)n2)c1` (some centres unmarked) [Example 34], the IC50 on Human CARM1 (PRMT4) came out at 5.1 nM; in assay [1], 120 nM.
Regarding `CNC[C@@H](O)COc1ccc(Cl)c(-c2nc(-c3c(C)noc3C)c(C)c(N3Cc4c(n(C)c(=O)n(C)c4=O)C3)n2)c1` [Example 35], the IC50 on Human CARM1 (PRMT4) came to 3.7 nM; in assay [1], 412 nM.
Taken in the same sequence, the figures for `CNC[C@@H](O)COc1ccc(Cl)c(-c2nc(-c3c(C)noc3C)c(C)c(N3Cc4cnc(C5CC5)cc4C3)n2)c1` [Example 36] were 2.4 nM and 49 nM.
Regarding `CCc1cc2c(cn1)CN(c1nc(-c3cc(OC[C@H](O)CNC)ccc3Cl)nc(-c3c(C)noc3C)c1C)C2` [Example 37], the figures for the IC50 (on Human CARM1 (PRMT4); in assay [1]) were 2.6 nM and 37 nM, respectively.
As to `CNC[C@@H](O)COc1ccc(F)c(-c2nc(-c3c(C)noc3C)c(C)c(N3CC4(CCN(CC(F)F)C4)C3)n2)c1` [Example 38], the IC50 on Human CARM1 (PRMT4) stood at 5.7 nM; in assay [1], 76 nM.
In the case of `CNC[C@@H](O)COc1ccc(Cl)c(-c2nc(-c3c(C)noc3C)c(C)c(N3Cc4ccc(Cl)nc4C3)n2)c1` [Example 39], the IC50 on Human CARM1 (PRMT4) was 2 nM; in assay [1], 32 nM.
With `CNC[C@@H](O)COc1ccc(Cl)c(-c2nc(-c3c(C)noc3C)c(C)c(N3Cc4nc5n(c(=O)c4C3)CCC5)n2)c1` [Example 40], the figures for the IC50 (on Human CARM1 (PRMT4); in assay [1]) were 2.8 nM and 391 nM, respectively.
As to `CNC[C@@H](O)COc1ccc(Cl)c(-c2nc(-c3c(C)noc3C)c(C)c(N3CC4(CN(C(=O)N(C)C)C4)C3)n2)c1` [Example 41], the IC50 at Human CARM1 (PRMT4) is 8.7 nM; in assay [1], 546 nM.
Consider `CNC[C@@H](O)COc1ccc(Cl)c(-c2nc(-c3c(C)noc3C)c(C)c(N3CC4(C3)CN(S(C)(=O)=O)C4)n2)c1` [Example 42], for which the IC50 on Human CARM1 (PRMT4) is 10.4 nM; in assay [1] it was 406 nM.
Regarding `CNC[C@@H](O)COc1ccc(Cl)c(-c2nc(-c3c(C)noc3C)c(C)c(N3CC4(CN(C(=O)OC)C4)C3)n2)c1` [Example 43], the IC50 was determined as 10 nM at Human CARM1 (PRMT4) and 84 nM in assay [1].
Consider `CNC[C@@H](O)COc1ccc(Cl)c(-c2nc(-c3c(C)noc3C)c(C)c(N3Cc4cnc(C)cc4C3)n2)c1` [Example 44], for which the IC50 at Human CARM1 (PRMT4) was 2.9 nM; in assay [1] it was 27 nM.
For the compound `CNC[C@@H](O)COc1ccc(Cl)c(-c2nc(-c3c(C)noc3C)c(C)c(N3CC4(CCN(CC(F)(F)F)C4)C3)n2)c1` [Example 45], the IC50 on Human CARM1 (PRMT4) was 11.9 nM; in assay [1], 40 nM.
With `CNC[C@@H](O)COc1ccc(Cl)c(-c2nc(-c3c(C)noc3C)c(C)c(N3CC4(CCN(CC(F)(F)F)CC4)C3)n2)c1` [Example 46], the IC50 on Human CARM1 (PRMT4) was found to be 17.4 nM; in assay [1] it was 35 nM.
For the compound `CNC[C@@H](O)COc1ccc(Cl)c(-c2nc(-c3c(C)noc3C)c(C)c(N3Cc4c(n5c(nc4=O)CCC5)C3)n2)c1` [Example 47], the IC50 is 6.3 nM at Human CARM1 (PRMT4) and > 20000 nM in assay [1].

(Values after patent publication US20170305922A1, “CARM1 INHIBITORS AND USES THEREOF” (Epizyme, Inc., priority 2014, published 2017).)
